Laboratory results: ChEMBL document CHEMBL2434930, “Design, synthesis and biological evaluation of novel anti-cytokine 1,2,4-triazine derivatives” (Bioorg Med Chem, 2013)
Active and inactive are the calls of the source. No cut-off for these calls is given here.

How the values were obtained:
[1] = molecular target: T1, MAP kinase p38 (Homo sapiens) (UniProt O15264+Q15759+Q16539+P53778); test: Inhibition of etoposide-induced p38 MAPK activation in human MCF7 cells at 20 uM treated 30 mins before etoposide challenge measured after 3 hrs by Western blot analysis; format: cell-based
[2] = molecular target: T1, MAP kinase p38 (Homo sapiens); test: Inhibition of etoposide-induced p38 MAPK activation in human MCF7 cells assessed as phosphorylated ATF-2 level at 20 uM treated 30 mins before etoposide challenge measured after 3 hrs by Western blot analysis; format: cell-based
PBMC [3] = test: Antiinflammatory activity in human PBMC assessed as inhibition of LPS-induced TNFalpha production at 10 uM treated 30 mins before LPS challenge measured after 6 hrs by ELISA; format: functional
Rattus norvegicus [4] = test: Antiinflammatory activity in rat assessed as inhibition of carrageenan-induced paw edema at 10 mg/kg, ip administered 1 hr before carrageenan challenge measured at 3 hrs relative to control; format: functional; settings: route intraperitoneal
PBMC [5] = test: Cytotoxicity against human PBMC assessed as cell viability at 10 to 20 uM by MTT assay; format: cell-based
Rattus norvegicus [6] = test: Antiinflammatory activity in rat assessed as inhibition of carrageenan-induced paw edema at 10 mg/kg, ip administered 1 hr before carrageenan challenge measured at 2 hrs relative to control; format: functional; settings: route intraperitoneal
PBMC [7] = test: Antiinflammatory activity in human PBMC assessed as inhibition of LPS-induced IL1-beta production at 10 uM treated 30 mins before LPS challenge measured after 6 hrs by ELISA; format: functional
Rattus norvegicus [8] = test: Antiinflammatory activity in rat assessed as inhibition of carrageenan-induced paw edema at 10 mg/kg, ip administered 1 hr before carrageenan challenge measured at 1 hr relative to control; format: functional; settings: route intraperitoneal
MCF7 = test: Cytotoxicity against human MCF7 cells assessed as cell viability at 10 to 20 uM by MTT assay; format: cell-based; settings: mcf7, 20 µM
Rattus norvegicus [9] = test: Antiinflammatory activity in rat assessed as inhibition of carrageenan-induced paw edema at 10 mg/kg, ip administered 1 hr before carrageenan challenge measured at 4 hrs relative to control; format: functional; settings: route intraperitoneal
Rattus norvegicus [10] = test: Antiinflammatory activity in rat assessed as inhibition of carrageenan-induced paw edema at 50 mg/kg, ip administered 1 hr before carrageenan challenge measured at 4 hrs relative to control; format: functional; settings: route intraperitoneal
Rattus norvegicus [11] = test: Antiinflammatory activity in rat assessed as inhibition of carrageenan-induced paw edema at 50 mg/kg, ip administered 1 hr before carrageenan challenge measured at 2 hrs relative to control; format: functional; settings: route intraperitoneal
Rattus norvegicus [12] = test: Antiinflammatory activity in rat assessed as inhibition of carrageenan-induced paw edema at 50 mg/kg, ip administered 1 hr before carrageenan challenge measured at 1 hr relative to control; format: functional; settings: route intraperitoneal
Rattus norvegicus [13] = test: Antiinflammatory activity in rat assessed as inhibition of carrageenan-induced paw edema at 50 mg/kg, ip administered 1 hr before carrageenan challenge measured at 3 hrs relative to control; format: functional; settings: route intraperitoneal

SMILES	inhibition at 10 µM (PBMC [3])	Activity (PBMC [5])	inhibition at 10 µM (PBMC [7])	Activity (MCF7)	also measured
COc1ccc(-c2nnc(N/N=C/c3cccc(OC)c3OC)nc2-c2ccc(OC)cc2)cc1	71.8%	Non-toxic	89.8%	Non-toxic	inhibition [1]: inactive; inhibition [2]: Active; inhibition in vivo at 10 mg/kg (Rattus norvegicus [4]): 64.2%; inhibition in vivo at 10 mg/kg (Rattus norvegicus [6]): 45.3%; inhibition in vivo at 10 mg/kg (Rattus norvegicus [8]): 38.8%; inhibition in vivo at 10 mg/kg (Rattus norvegicus [9]): 75.6%
COc1ccc(-c2nnc(N/N=C/c3ccc(OC)c(OC)c3)nc2-c2ccc(OC)cc2)cc1	45%	Non-toxic	39.9%	Non-toxic	–
COc1ccc(-c2nnc(N/N=C/c3cc4ccccc4[nH]3)nc2-c2ccc(OC)cc2)cc1	53.3%	Non-toxic	82.3%	Non-toxic	–
COc1ccc(/C=N/Nc2nnc(-c3ccc(OC)cc3)c(-c3ccc(OC)cc3)n2)cc1	48.5%	Non-toxic	35.9%	Non-toxic	–
COc1ccc2c(c1)c(CC(=O)O)c(C)n2C(=O)c1ccc(Cl)cc1 [INDOMETHACIN]	–	–	–	–	inhibition in vivo at 50 mg/kg (Rattus norvegicus [10]): 68.2%; inhibition in vivo at 50 mg/kg (Rattus norvegicus [11]): 28.4%; inhibition in vivo at 50 mg/kg (Rattus norvegicus [12]): 19.2%; inhibition in vivo at 50 mg/kg (Rattus norvegicus [13]): 48.2%
COc1ccc(-c2nnc(N/N=C/c3cccs3)nc2-c2ccc(OC)cc2)cc1	57.5%	Non-toxic	81.8%	Non-toxic	–
COc1ccc(-c2nnc(N/N=C/c3c(Cl)cccc3[N+](=O)[O-])nc2-c2ccc(OC)cc2)cc1	47.9%	Non-toxic	2.81%	Non-toxic	–
COc1ccc(-c2nnc(N/N=C/c3ccc4c(c3)OCO4)nc2-c2ccc(OC)cc2)cc1	52.2%	Non-toxic	86.9%	Non-toxic	–
Oc1ccc(-c2nc(-c3ccc(F)cc3)c(-c3ccncc3)[nH]2)cc1 [SB-202190]	87.2%	–	93.4%	–	–
COc1ccc(-c2nnc(N/N=C/c3ccco3)nc2-c2ccc(OC)cc2)cc1	71.1%	Non-toxic	84%	Non-toxic	–
COc1ccc(-c2nnc(N/N=C/c3ccc(O)c(OC)c3)nc2-c2ccc(OC)cc2)cc1	46.1%	Non-toxic	84.3%	Non-toxic	–
COc1ccc(-c2nnc(N/N=C/c3ccncc3)nc2-c2ccc(OC)cc2)cc1	41.8%	Non-toxic	60.8%	Non-toxic	–
COc1ccc(-c2nnc(N/N=C/c3ccc([N+](=O)[O-])cc3)nc2-c2ccc(OC)cc2)cc1	37.6%	Non-toxic	15.5%	Non-toxic	–
COc1ccc(-c2nnc(N/N=C/c3ccc(Cl)cc3Cl)nc2-c2ccc(OC)cc2)cc1	70%	Non-toxic	86.9%	Non-toxic	–
COc1ccc(-c2nnc(N/N=C/c3ccc(O)cc3O)nc2-c2ccc(OC)cc2)cc1	32.7%	Non-toxic	51.8%	Non-toxic	–
COc1ccc(-c2nnc(N/N=C/c3ccc(F)cc3)nc2-c2ccc(OC)cc2)cc1	34.5%	Non-toxic	27.9%	Non-toxic	–
COc1ccc(-c2nnc(N/N=C/c3ccccc3)nc2-c2ccc(OC)cc2)cc1	53.1%	Non-toxic	71.5%	Non-toxic	–
COc1ccc(-c2nnc(N/N=C/c3cccc(O)c3O)nc2-c2ccc(OC)cc2)cc1	46.7%	Non-toxic	78.2%	Non-toxic	–
